Patent publication US11977074B2, “Affinity-based detection of ligand-encoded synthetic biomarkers” (Massachusetts Institute of Technology, priority 2013, dated 2024)
Each block holds one compound with its values, some of them ahead of it. Where no end group is shown, it is not given here.

Columns and labels:
MMP9 = target: T1, MMP9 (Homo sapiens, UniProt P14780); experiment: Fluorogenic NW assay with recombinant MMP9; assay type: biochemical; settings: inhibitor 100 μM
T1 construct: purchased R&D Systems
T1 sequence (P14780 94-707, species assumed): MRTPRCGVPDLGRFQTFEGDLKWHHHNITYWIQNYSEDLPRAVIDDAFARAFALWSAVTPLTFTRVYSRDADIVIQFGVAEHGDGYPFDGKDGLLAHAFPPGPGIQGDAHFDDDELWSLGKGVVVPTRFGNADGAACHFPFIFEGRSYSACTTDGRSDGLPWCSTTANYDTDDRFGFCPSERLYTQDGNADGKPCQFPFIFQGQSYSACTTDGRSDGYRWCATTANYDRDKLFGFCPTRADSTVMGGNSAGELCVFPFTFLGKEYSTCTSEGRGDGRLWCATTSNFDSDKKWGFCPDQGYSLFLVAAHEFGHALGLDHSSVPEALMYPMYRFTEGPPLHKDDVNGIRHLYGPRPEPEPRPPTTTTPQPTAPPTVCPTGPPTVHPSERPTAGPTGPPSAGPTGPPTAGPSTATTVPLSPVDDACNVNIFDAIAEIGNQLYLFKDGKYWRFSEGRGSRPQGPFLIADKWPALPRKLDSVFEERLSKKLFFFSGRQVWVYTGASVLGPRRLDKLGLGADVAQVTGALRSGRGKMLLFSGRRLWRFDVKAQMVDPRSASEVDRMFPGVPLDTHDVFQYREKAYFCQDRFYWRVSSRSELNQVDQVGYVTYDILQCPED
Experimental: Fluorescent reporter-bound thrombin- or MMP-sensitive NWs (substrates PLGLRSW, SEQ ID NO: 3, or PLGVRGK, SEQ ID NO: 4, respectively) were introduced to recombinant thrombin or MMP9 (respectively). Release of homoquenched fluorophores upon proteolysis was read as increased fluorescence by plate reader at 37° C. Inhibitors Argatroban or Marimastat were incubated with the protease-NW cocktail at 100 μM. To quantify reporter release by LFA, reporter-functionalized NWs were incubated with cognate proteases, passed through a 30 kDa MW cutoff filter, quantified by LFA, and analyzed by Mann-Whitney test.
(SpectroMax Gemini EM microplate reader). Argatroban (Sigma) or Marimastat (Tocris) were incubated with the NW-protease cocktail at 100 μM final concentration. To assay proteolytic reporter release by LFA, reporter-functionalized enzyme sensitive NWs were incubated with MMP9 or thrombin as above at 37° C. for four hours and passed through a 30 kDa MW cutoff centrifugal filter. The filtered reporters were diluted to within LFA dynamic range and assayed by LFA as described below. Reporter stability experiments were performed using reporter 3 (1 μM) mixed in 1% w/v BSA with recombinant thrombin or MMP9 (both 15 nM) as above to 100 μL final volume and were incubated at 37° C. for 1 h. […]

MMP = experiment: Urinary reporters in LS174T colorectal tumor model by ELISA and LFA; assay type: in vivo, mice; settings: urine test, ELISA
Experimental: Collection and analysis of urinary peptides. […] Reporter concentration in unprocessed urine was assayed by above protocols from urine diluted 1:10^2L10^4 for ELISA or 1:4-5 for LFA. Data was analyzed using receiver-operator characteristic (ROC) curves (both) and Wilcoxon signed rank test (CRC) or Mann-Whitney test (thrombosis).
Immediately following infusion, mice were placed over 96-well plates enclosed by a cylindrical tube to collect urine for 30 m (thrombosis model) or 1 h (tumor model). […] Urine was stored at −80° C. directly following collection.

thrombin [1] = target: T2, thrombin (Mus musculus, UniProt P19221); experiment: Urinary reporters in collagen/epinephrine thrombosis model by ELISA and LFA; assay type: in vivo, mice
T2 construct: from tissue; host or cells: blood and pulmonary thrombi of live Swiss Webster mice (thromboplastin or collagen/epinephrine induced)
Experimental: Collection and analysis of urinary peptides. […] Urine collection times were optimized from previous studies using these disease models^[30, 31] and are dependent on site of disease and rate of enzymatic substrate cleavage. Reporter concentration in unprocessed urine was assayed by above protocols from urine diluted 1:10^2L10^4 for ELISA or 1:4-5 for LFA. Data was analyzed using receiver-operator characteristic (ROC) curves (both) and Wilcoxon signed rank test (CRC) or Mann-Whitney test (thrombosis).
Immediately following infusion, mice were placed over 96-well plates enclosed by a cylindrical tube to collect urine for 30 m (thrombosis model) or 1 h (tumor model). Urine collection times were optimized from previous studies using these disease models^[30, 31] and are dependent on site of disease and rate of enzymatic substrate cleavage. Urine was stored at −80° C. directly following collection.
Unprocessed urine was diluted (1:100-1:10,000) in 1× PBS with 1% w/v BSA and reporters were quantified by ELISA (at least 2 replicates) using standards as described above. Urine was applied to lateral flow test strips in 5 μL volume, at 1:4 (thrombosis model) or 1:5 (CRC model) dilution. Lateral flow tests were performed in triplicate as described above and test strips were allowed to dry and were quantified by automated script as described above. ELISA and LFA data was analyzed using a Wilcoxon signed rank test (CRC) and a Mann-Whitney test (thrombosis).
Urine concentration is dependent on many host and environmental factors (e.g. diet, activity level, medical history, circadian rhythm); therefore, we sought to develop a normalization strategy for the test. It was hypothesized that co-administered free reporters would pass into the urine independent of disease state and could be used to normalize the level of reporters released by protease activity.

thrombin [2] = target: T3, thrombin (Homo sapiens, UniProt P00734); assay type: biochemical; set-up: with recombinant thrombin (15 nM; Haematologic Technologies); purchased Haematologic Technologies; settings: R3 in tandem with thrombin-sensitive substrate on NWs; vs samples not exposed to thrombin
Excerpt: Following in vitro substrate cleavage by thrombin, the peptide fragments were collected by size-exclusion filtration.

Swiss Webster mice = experiment: Thromboplastin-induced thrombosis, VT750-fibrin(ogen) deposition in organs; assay type: in vivo; settings: bivalirudin 10 mg/kg i.v. five minutes prior to thromboplastin
Experimental: Characterization of thromboplastin-induced thrombosis: Each vial of thromboplastin containing 3-4 mg (from rabbit brain, Sigma) was dissolved in 2 mL of PBS. To quantify fibrin deposition, bovine fibrinogen (Sigma) was reacted with 3-fold molar excess of VT750 for 1 hr at RT, and purified by centrifugal size filtration (size cutoff, Millipore). Swiss Webster mice (Taconic) were lightly anesthetized with isofluorane and administered mixtures of VT750-fibrinogen (1 nmol by VT750) with thromboplastin (n=3 mice per dose) via tail vein injections. After 30 minutes, mice were euthanized by CO2 asphyxiation and organs were scanned on the LI-COR Odyssey Infrared Imaging System. Fibrin(ogen) fluorescence in each organ was quantified using ImageJ software (NIH). To test thrombin inhibition, mice were intravenously administered bivalirudin (10 mg/kg) five minutes prior to co-injection of thromboplastin. […]
We next investigated the ability of the synthetic biomarkers to detect thrombosis in living mice induced via intravenous (i.v.) administration of thromboplastin. […] To quantify PE formation, mice were co-injected with thromboplastin and the clot precursor fibrinogen (labeled with the near-infrared fluorophore VT750) so that the formation of fibrin clots by thrombin-mediated proteolysis of fibrinogen could be quantified by fluorescence analysis of whole organs (FIG. 3A). […]

thrombin [3] = target: T2, thrombin; experiment: Urinary monitoring of thromboplastin-induced thrombosis by ELISA; assay type: in vivo, mice; settings: bivalirudin 10 mg/kg; thromboplastin 2 μl per g b.w.
Experimental: ELISA detection of bifunctionalized reporters: 96-well plates (Thermo Scientific) were incubated with either 0.8 μg/mL of anti-Flsc (GeneTex, GTX19224) or 0.4 μg/mL of anti-Alex Fluor 488 (Invitrogen, A11094) diluted in PBS overnight at 4° C. Plates were blocked with 1% w/v bovine serum albumin (Sigma) in PBS for 1 hr before 100 μL of samples were added. Reporters captured on the plate were then detected by adding 100 μL of 0.2 μg/mL neutravidin-HRP (Pierce), developed with 50 μL TMB solution (Thermo Scientific) for 5-15 minutes and quenched with 50 μL of HCl before the absorbance of the wells was determined by microplate analysis (SpectraMax Plus, Molecular Devices) at 450 nm. Plates were washed 3× with PBST between each steps and incubation occurred at RT unless otherwise stated.
Urinary monitoring of thrombosis. Experiments were conducted in a paired setup. […] Urine samples were stored at −80° C. until ELISA analysis.
The concentration of analytes in the urine is mainly dependent on the hydration state of the host (ranging from 50-1200 mOsm/kg H2O in humans)^[20] and is affected by many external factors (e.g. circadian rhythm, diet, activity, and others). […]

thrombin [4] = target: T3, thrombin; experiment: Fluorogenic NW assay with purified thrombin; assay type: biochemical; set-up: mixed with human thrombin (2 μM); purchased Haematologic Technologies; settings: bivalirudin 5 mg/mL, pre-incubated two minutes
Experimental: In vitro protease assays: NWs (200 nM by peptide) were mixed with human thrombin (2 μM), FVIIa (10 nM), FIXa (90 nM), FXa (160 nM), FXIa (31 nM), and activated protein C (60 nM, Haematologic Technologies) in a 384-well plate at 37° C. in activity buffers according to the manufacturer's instructions and monitored with a microplate reader (SpectroMax Gemini EM). […] For thrombin inhibition experiments, bivalirudin (Anaspec) was added to a final concentration of 5 mg/mL and pre-incubated for two minutes prior to addition of NWs.
To test substrate specificity, fluorophore-labeled derivatives were conjugated onto NWs at a valency sufficient to produce homoquenched substrates (˜40 peptides per NW) and then incubated the NWs with purified thrombin or a panel of blood clotting proteases (FXa, APC, FIXa, FVIIa, FXIa), each present at its maximal physiological concentration during thrombosis (FIG. 1B).

thrombin [5] = target: T3, thrombin; experiment: Fluorogenic NW assay with recombinant thrombin; assay type: biochemical; set-up: with recombinant thrombin (15 nM; Haematologic Technologies); purchased Haematologic Technologies; settings: inhibitor 100 μM

activity of MMP9 on MMP-sensitive NWs in presence of inhibitor (MMP9): no activity
Compound: CNC(=O)[C@@H](NC(=O)[C@H](CC(C)C)[C@H](O)C(=O)NO)C(C)(C)C [Marimastat]

Compound: MMP-sensitive NWs: PEG-coated iron oxide nanoworms with MMP9-cleavable substrate PLGVRGK and fluorescein, VT750 or R2 reporter (also: on PEG-coated iron oxide nanoworms, fluorescein, VT750 or R2 reporter)
ROC a.u.c, discrimination of CRC (MMP): 0.90

Compound: TMR-GluFib-Biotin [Reporter R3]
urinary level of reporter normalized against R4 in mice harboring thrombi (thrombin [1]; ELISA): significantly increased
urinary level of reporter of thrombin activity in mice harboring thrombi (thrombin [1]; ELISA, quantified independently): significantly increased
ratio of R3/R4 in diseased urine vs healthy controls (thrombin [1]; multiplexed paper strip (LFA)): statistically significant increase
detection of cleaved reporter from filtrate by LFA after thrombin cleavage (thrombin [2]): readily detected

Compound: bivalirudin
formation of PEs in pretreated animals (Swiss Webster mice): readily prevented
urinary reporter levels in mice treated with inhibitor prior to thrombotic challenge (thrombin [3]): abrogated
proteolysis of NWs by thrombin in the presence of inhibitor (thrombin [4]): negligible proteolysis

fluorescence of thrombin-sensitive NWs with thrombin in presence of inhibitor (thrombin [5]): No increase in fluorescence
Compound: CC1CNc2c(cccc2S(=O)(=O)N[C@@H](CCCNC(=N)N)C(=O)N2CC[C@@H](C)C[C@@H]2C(=O)O)C1 (stereo partly shown) [Argatroban]
